Source: paper PMC7374170, “TRIB3-EGFR interaction promotes lung cancer progression and defines a therapeutic target” (Nature Communications, 2020)
Where two headings read alike, the source gives them in different places. Bridge positions count the residues as written; N and C are the ends. Square brackets hold non-standard residues; d marks the D form. Peptide text beside a SMILES is read from it. S5 = C=CCCC[C@](C)(N)C(=O)O

Key:
[1] = In vivo bio-distribution and clearance of FAM-labeled peptide (IVIS); conditions: FAM-labeled peptides, bolus tail vein injection 2 mg kg-1, male athymic BALB/c nude mice
Experimental: detected by Exactive™ Plus Orbitrap (Thermo Fisher Scientific, USA).
In vitro plasma stability assay
The rat blood was collected by
The plasma solutions were incubated […]
ionization mass spectrometric detection. The values represent the mean of 3 independent assays.
In vivo bio-distribution and clearance of peptide
OH, USA). Data was analyzed by the built-in software.

[2] = parameters: species or system BALB/c nude mice; conditions: mouse, in vivo
Experimental: twice a week for 4 weeks. […] Data are means ± SEM of 3 independent assays. […] CALM: Calmodulin. […] Lung cancer cells were isolated from PDX mice by using the […] One week after tumor inoculation, mice were […] or pemetrexed (100 mg kg-1, once a day). Tumor growth was monitored twice weekly with a caliper. Tumor volume (T ) was calculated using the formula: T =0.5×L×W 2. Mice survival V V […] signs of distress. […] Generation of Stable Cell Lines To establish cell populations stably expressing TRIB3-shRNA1/2, or the Control-shRNA, cells were transfected with TRIB3-shRNA1/2 or the Control-shRNA expressing plasmids. Stable transfectants were selected in medium containing hygromycin. […] (Supplementary Fig. 9a).

[3] = test system: colonic mucosal epithelial cells (NCM460)
Experimental: (§1) anti-HA Ab and blotted with indicated Abs. c, Cell viability of indicated cells treated with
(§2) Data are means ± SEM of 3 independent assays. d,
(§3) CCK-8 was conducted to detect the cell viability in cell proliferation and cytotoxicity assays
(§4) according to the manufacturer’s instructions (Dojindo Inc., Kumamoto, Japan). Cells were
(§5) plated in 96-well plates, starting at 3,000 cells/well. For cytotoxicity assay, the cells were
(§6) treated with indicated drugs, then a mixture of 10 µl CCK-8 solution and 90 µl complete culture
(§7) medium was added into each well. After 1 hr of incubation, the absorbance was measured at

[4] = test system: bronchial epithelial cells (BEAS-2B)
Experimental: as §1, §2, §3, §4, §5, §6, §7

[5] = In vitro plasma stability assay; conditions: normalised to 100 at 0 min
Experimental: The in vitro stability of the peptide was studied in rat plasma. The rat blood was collected by
retroorbital puncture and plasma was harvested after centrifugation (2,500×g, 5 min, 4℃) and
stored at -70℃. The reactions were initiated by adding the test peptide to 100 µl of preheated
plasma solution to yield a final concentration of 4 mM. The plasma solutions were incubated
for indicated times and added 200 µl acetonitrile to deproteinize the plasma. The samples were
subjected to vortex mixing for 1 min and centrifugation for 15 min (14,000 rpm, 4℃). Peptide
concentration in supernatants was determined by reversed-phase HPLC with electrospray

[6] = test system: cell surface EGFR in NCI-H157 cells; experiment: Cell surface EGFR by flow cytometry, NCI-H157; assay type: cell-based, human; conditions: TRIB3-overexpressing NCI-H157 cells, 10 µM monensin 4 hr, EGF 100 ng ml-1 1 hr
Experimental: Supplementary Figure 2 Overexpression of TRIB3 promotes EGFR recycling. […]
a, NCI-H157 cells and NCI-H157 cells stably expressed TRIB3 were non-stimulated or EGF […]
(100 ng ml-1) stimulated for indicated times. Co-localization of EGFR with EEA1 was analyzed […]
with confocal microscopy, quantification of EGFR and EEA1 colocalization was shown as […]
Pearson’s coefﬁcient. Data are means ± SEM of 3 independent assays. b, Gating strategy to […]
determine surface EGFR level presented in figure 2d and supplementary figure 2c. c, […]
Quantitative analyses of cell surface EGFR in NCI-H157 cells stably expressed Empty-Vector […]
or TRIB3-HA expression plasmid. Cells were pre-incubated with DM SO or 10 µM monensin […]
cell surface was detected by flow cytometry analysis. […]
detected in NCI-H157 cells with or without TRIB3-HA stably ectopic expression (d); or in NCI- […]
localization of EGFR with Rab11 and LAMP1. Quantification of EGFR/Rab11 or […]
3 independent assays. Statistical significance between two groups was determined with two- […]
tailed Student’s t-test. Statistical significance among groups was determined by one-way ANOVA test. […]
Live cells were stained with Alexa-Fluro 488 anti-EGFR antibody (Santa Cruz, R-1, #sc-101 AF488, 1:100). Analysis was performed using a PARTEC EPICSXL (Germany) and data was analyzed using FCS Express 6. […]

A549 cells = experiment: CCK-8 cell viability / cytotoxicity, A549; assay type: cell-based; conditions: Homo sapiens, read-out: IC50 of pemetrexed, A549, before sensitization
Experimental: as §3, §4, §5, §6, §7

NCI-H1975 cells = experiment: CCK-8 cell viability / cytotoxicity, NCI-H1975; assay type: cell-based; conditions: Homo sapiens
Experimental: as §3, §4, §5, §6, §7

Experimental for keratinocytes (HaCaT): as §1, §2, §3, §4, §5, §6, §7

CC[C@H](C)[C@@H]1NC(=O)[C@@](C)(NC(=O)[C@H](CC(C)C)NC(=O)[C@H](CC(C)C)NC(=O)[C@H](C)NC(=O)[C@H](CCC(N)=O)NC(=O)[C@@H](N)CC(N)=O)CCCC=CCCC[C@@](C)(C(=O)N[C@H](C(=O)N[C@@H](CCC(=O)O)C(=O)N[C@@H](Cc2ccccc2)C(=O)N[C@@H](CCCCN)C(=O)N[C@@H](CCCCN)C(=O)O)[C@@H](C)O)NC(=O)[C@H](CCCNC(=N)N)NC(=O)[C@H](CC(C)C)NC1=O [SAH-JGZ4] (H-NQALL[S5]ILR[S5]TEFKK-OH; staple 6-10)
half-clearance rate in vivo compared with Pep2-JGZ [1]: slower half-clearance rate
EGFR and HER2 expression in the heart [2]: did not cause reductions in
cell viability, HaCaT (keratinocytes (HaCaT)): had no effect on the cell viability
cell viability, NCM460 [3]: had no effect on the cell viability
cell viability, BEAS-2B [4]: had no effect on the cell viability
peptide remaining ([5]; 450 min, replicate 1): 113.749
peptide remaining ([5]; 450 min, replicate 2): 125.15
peptide remaining ([5]; 450 min, replicate 3): 119.761
peptide remaining ([5]; 540 min, replicate 1): 115.041
peptide remaining ([5]; 540 min, replicate 2): 121.067
peptide remaining ([5]; 540 min, replicate 3): 118.562
peptide remaining ([5]; 630 min, replicate 1): 106.23
peptide remaining ([5]; 630 min, replicate 2): 116.53
peptide remaining ([5]; 630 min, replicate 3): 116.365
peptide remaining ([5]; 720 min, replicate 1): 109.883
peptide remaining ([5]; 720 min, replicate 2): 113.113
peptide remaining ([5]; 720 min, replicate 3): 112.463

CC[C@@]1([C@@H]2O[C@@H]([C@H]3O[C@@](O)(CO)[C@H](C)C[C@@H]3C)C[C@@H]2C)CC[C@H]([C@]2(C)CC[C@]3(C[C@H](O)[C@@H](C)[C@@H]([C@@H](C)[C@@H](OC)[C@H](C)C(=O)O)O3)O2)O1 [monensin]
EGFR membrane level [6]: reduced the EGFR membrane level

Nc1nc2[nH]cc(CCc3ccc(C(=O)N[C@@H](CCC(=O)O)C(=O)O)cc3)c2c(=O)[nH]1 [pemetrexed]
IC50 (A549 cells): 0.245 µM
IC50 (NCI-H1975 cells; NCI-H1975, read-out: IC50 of pemetrexed, H1975, sensitized by SAH-JGZ4): 0.793 µM
IC50 (NCI-H1975 cells; NCI-H1975, read-out: IC50 of pemetrexed, H1975, before sensitization): 3.17 µM
